The target in assay [1] is Cyclin-dependent kinase 2 (Homo sapiens, UniProt P24941). Briefly: Inhibition of CDK2.
Assay [2] addresses Cyclin-dependent kinase 4 (Homo sapiens, UniProt P11802). Put plainly: Inhibition of CDK4.
Assay [3] deals with Cyclin-dependent kinase 1 (Homo sapiens, UniProt P06493). Briefly: Inhibition of CDK1.
The subject of a further assay is EJ. Briefly: Antiproliferative activity against human EJ cells after 48 hrs. The assay is classed as functional, cell-based.
Another assay has as its system A549. Briefly: Antiproliferative activity against human A549 cells after 48 hrs. The assay is classed as functional, cell-based. The conditions noted are these: A549, 48 h.
The next assay has as its system SW-620. Briefly: Antiproliferative activity against human SW620 cells after 48 hrs. The conditions noted are these: SW-620, 48 h. The assay is classed as functional, cell-based.
For the next assay, the system named is HCT-116. Briefly: cells. The conditions noted are these: Homo sapiens, HCT-116, 48 h.
The nature of assay [4]: Selectivity for CDK2 over CDK1.

Each structure is given as a SMILES string.

Chain of Cyclin-dependent kinase 1 (P06493 whole entry): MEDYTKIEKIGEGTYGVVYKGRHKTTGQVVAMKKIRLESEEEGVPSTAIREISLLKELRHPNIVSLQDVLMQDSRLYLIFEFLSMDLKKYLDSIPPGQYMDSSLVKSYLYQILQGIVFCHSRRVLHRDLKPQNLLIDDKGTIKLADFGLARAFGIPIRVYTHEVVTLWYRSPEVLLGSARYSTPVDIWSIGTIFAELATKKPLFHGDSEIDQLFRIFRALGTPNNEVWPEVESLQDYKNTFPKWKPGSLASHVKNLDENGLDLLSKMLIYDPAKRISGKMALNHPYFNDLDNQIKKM
Chain of Cyclin-dependent kinase 4 (P11802 whole entry): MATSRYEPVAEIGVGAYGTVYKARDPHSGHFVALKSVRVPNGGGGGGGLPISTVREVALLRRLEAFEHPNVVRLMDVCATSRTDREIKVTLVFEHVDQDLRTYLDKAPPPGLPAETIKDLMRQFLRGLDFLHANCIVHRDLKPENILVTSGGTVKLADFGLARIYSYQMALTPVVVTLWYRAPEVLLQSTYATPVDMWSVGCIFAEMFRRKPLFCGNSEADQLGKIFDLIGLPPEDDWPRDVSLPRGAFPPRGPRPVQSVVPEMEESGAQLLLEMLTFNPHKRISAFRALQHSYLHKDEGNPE
Description for HCT-116: Antiproliferative activity against human HCT116 cells after 48 hrs

Regarding `O=C(Cc1ccc(Cl)cc1)Nc1n[nH]c2ccc(N3CCCS3(=O)=O)cc12`, the IC50 in assay [1] stood at 10 nM; in assay [2] it was 2000 nM; in assay [3] it was 12 nM; with EJ it was 930 nM; with A549 it was 1500 nM; in the assay on SW-620, 930 nM. Moreover, in the assay on HCT-116, the IC50 turned out to be 1230 nM.
Regarding `CCN(CC)c1ccc(CC(=O)Nc2n[nH]c3ccc(N4CCCS4(=O)=O)cc23)cc1`, the IC50 in assay [1] is 40 nM; in assay [2] it was more than 1000 nM; in assay [3], 60 nM; in the assay on EJ it was 55 nM; in the assay with A549, 50 nM; in the assay on HCT-116, 220 nM.
Consider `CSc1ccc(CC(=O)Nc2n[nH]c3ccc(N4CCCS4(=O)=O)cc23)cc1`, for which the IC50 in assay [1] was found to be 10 nM; in assay [2] it was 1300 nM; in assay [3] it was 40 nM; with EJ it was 280 nM; in the assay on A549, 2470 nM; with SW-620 it was 150 nM. Also, half-maximal inhibition with HCT-116 (IC50) was put at 820 nM.
On to `O=C(Cc1ccccc1)Nc1n[nH]c2ccc(N3CCCS3(=O)=O)cc12`, for which the IC50 amounted to 36 nM in assay [1]; 3700 nM in assay [2]; 3600 nM in the assay with EJ; 2200 nM with SW-620; 4600 nM in the assay with HCT-116.
Regarding `O=C(Cc1cccc(F)c1)Nc1n[nH]c2ccc(N3CCCS3(=O)=O)cc12`, the values for the IC50 in assay [1], in assay [2] and in assay [3] were 10 nM, 710 nM and 30 nM, respectively. Further, the Ratio IC50 in assay [4] was less than 10.
For the molecule `O=C(Cc1ccc(N2CCCCC2)cc1)Nc1n[nH]c2ccc(N3CCCS3(=O)=O)cc12`, the IC50 in assay [2] was determined as 750 nM; in assay [3], 150 nM; in the assay on EJ, 980 nM; in the assay with A549, 1100 nM; with HCT-116, 1200 nM.
Molecule `O=C(Cc1ccccc1)Nc1n[nH]c2ccc(N3CCCC3=O)cc12` had an IC50 in assay [1] of 170 nM. That is a sub-micromolar value.
As to `CN(C)c1ccc(CC(=O)Nc2n[nH]c3ccc(N4CCCS4(=O)=O)cc23)cc1`, the IC50 was determined as 10 nM in assay [1]; 210 nM in assay [2]; 28 nM in assay [3]; 350 nM in the assay with A549; 830 nM in the assay on HCT-116. In assay [4], the Ratio IC50 is less than 10.
With `CCNc1ccc2[nH]nc(NC(=O)Cc3ccccc3)c2c1`, in assay [1], the IC50 is 500 nM.
In assay [1], `CCCN(CCC)c1ccc2[nH]nc(NC(=O)Cc3ccccc3)c2c1` showed an IC50 of 1800 nM.
For `O=C(Cc1cccc(Br)c1)Nc1n[nH]c2ccc(N3CCCS3(=O)=O)cc12`, the IC50 in assay [1] worked out at 7 nM; in assay [2] it was 1800 nM; in assay [3], 47 nM. Further, the Ratio IC50 in assay [4] was less than 10.
For `O=C(Cc1ccc(O)cc1)Nc1n[nH]c2ccc(N3CCCS3(=O)=O)cc12`, the IC50 turned out to be 9 nM in assay [1]; 1750 nM in assay [2]; 28 nM in assay [3]; 5200 nM in the assay on EJ; 3830 nM in the assay with SW-620; 6530 nM in the assay with HCT-116.
In the case of `Cc1ccc(CC(=O)Nc2n[nH]c3ccc(N4CCCS4(=O)=O)cc23)cc1`, the IC50 was determined as 7 nM in assay [1]; 1800 nM in assay [2]; 40 nM in assay [3]; 1670 nM in the assay on EJ; 2570 nM with A549; 1560 nM in the assay on SW-620. Half-maximal inhibition in the assay on HCT-116 (IC50) required 1770 nM. In addition, in assay [4], the Ratio IC50 was less than 10.
For `CCCCN(CCCC)c1ccc2[nH]nc(NC(=O)Cc3ccccc3)c2c1`, in assay [1], the IC50 is more than 100000 nM.
Consider `O=C(Cc1ccccc1)Nc1n[nH]c2ccc([N+](=O)[O-])cc12`, for which half-maximal inhibition in assay [1] (IC50) required 2000 nM. That is a single-digit micromolar value.
As to `O=C(Cc1cccc(Cl)c1)Nc1n[nH]c2ccc(N3CCCS3(=O)=O)cc12`, the IC50 in assay [1] was found to be 10 nM; in assay [2] it was 1050 nM; in assay [3] it was 34 nM. For the same molecule, the Ratio IC50 in assay [4] is less than 10.
For `O=C(Cc1ccc(-c2ccncc2)cc1)Nc1n[nH]c2ccc(N3CCCS3(=O)=O)cc12`, the IC50 in assay [1] was 30 nM; in assay [2] it was 1330 nM; in assay [3] it was 60 nM; with EJ, 1050 nM; in the assay on A549, 1400 nM; in the assay with HCT-116, 2500 nM. Further, the Ratio IC50 in assay [4] was less than 10.
Molecule `O=C(Cc1ccccc1)Nc1n[nH]c2ccc(N3CCCCC3=O)cc12` displayed an IC50 in assay [1] of 7100 nM.
As to `O=C(Cc1ccc(-c2ccccc2)cc1)Nc1n[nH]c2ccc(N3CCCS3(=O)=O)cc12`, the IC50 in assay [1] turned out to be 14 nM; in assay [2], 2200 nM; in assay [3], 42 nM; with EJ, 52 nM; with A549, 55 nM; with SW-620, 40 nM. It took 180 nM to reach half-maximal inhibition in the assay with HCT-116 (IC50).
Take `O=C(Cc1ccc(F)cc1)Nc1n[nH]c2ccc(N3CCCS3(=O)=O)cc12`: the figures for the IC50 in assay [1], in assay [2] and in assay [3] were 20 nM, 3000 nM and 50 nM, respectively. The Ratio IC50 in assay [4] was less than 10.
Take `O=C(Cc1cccc2ccccc12)Nc1n[nH]c2ccc(N3CCCS3(=O)=O)cc12`: the IC50 came to 20 nM in assay [1]; 3000 nM in assay [2]; 67 nM in assay [3]; 1300 nM in the assay with EJ; 1400 nM in the assay with A549; 930 nM with SW-620. Further, half-maximal inhibition in the assay with HCT-116 (IC50) was put at 2300 nM. Further, in assay [4], the Ratio IC50 is less than 10.
For `CS(=O)(=O)c1ccc(CC(=O)Nc2n[nH]c3ccc(N4CCCS4(=O)=O)cc23)cc1`, the IC50 in assay [1] came to 22 nM; in assay [2] it was 1400 nM; in assay [3], 200 nM; in the assay with EJ it was 35000 nM; with HCT-116, 48000 nM.
Consider `Nc1ccc(CC(=O)Nc2n[nH]c3ccc(N4CCCS4(=O)=O)cc23)cc1`, for which the values for the IC50 in assay [1], in assay [2] and in assay [3] were 16 nM, 2200 nM and 60 nM, respectively. The Ratio IC50 in assay [4] was less than 10.
Turning to `O=C(Cc1ccc2ccccc2c1)Nc1n[nH]c2ccc(N3CCCS3(=O)=O)cc12`, the IC50 turned out to be 9 nM in assay [1]; 1600 nM in assay [2]; 40 nM in assay [3]; 120 nM in the assay with EJ; 90 nM with A549; 80 nM in the assay with SW-620. The IC50 in the assay on HCT-116 stood at 310 nM. The Ratio IC50 in assay [4] is less than 10.
In the case of `Cc1cccc(CC(=O)Nc2n[nH]c3ccc(N4CCCS4(=O)=O)cc23)c1`, the IC50 in assay [1] was 10 nM; in assay [2] it was 4000 nM; in assay [3] it was 50 nM. Moreover, in assay [4], the Ratio IC50 is less than 10.
In the same order, the values of `O=C(Cc1ccccc1Cl)Nc1n[nH]c2ccc(N3CCCS3(=O)=O)cc12` are 24 nM, 890 nM, 80 nM and less than 10.
On to `O=C(Cc1ccc(Br)cc1)Nc1n[nH]c2ccc(N3CCCS3(=O)=O)cc12`, for which the half-maximal inhibitory concentration (IC50) in assay [1] is 7 nM; in assay [2], 2000 nM; in assay [3], 22 nM; in the assay on EJ, 1570 nM; in the assay on A549, 3870 nM; in the assay with SW-620, 2000 nM. In the assay with HCT-116, this molecule had an IC50 of 1400 nM. The Ratio IC50 in assay [4] was less than 10.
In assay [1], `CCN(CC)c1ccc2[nH]nc(NC(=O)Cc3ccccc3)c2c1` showed an IC50 of 200 nM.
Same read-out and setting: then `O=C(Cc1ccccc1)Nc1n[nH]c2ccc(N3C(=O)CNC3=O)cc12`, with 2000 nM.

For orientation: IC50 means the concentration at which inhibition is half-maximal.

Source of the values: ChEMBL document CHEMBL1141545, “Synthesis and biological evaluation of 3,5-diaminoindazoles as cyclin-dependent kinase inhibitors” (Bioorg Med Chem Lett, 2008).
